Read-outs that look alike come from different tables or passages of the source.
What was measured:
Type in all cases: cell-based
hPPARα (LBD) = molecular target: T1, hPPARα (LBD) (Homo sapiens, UniProt Q07869); assay: PPAR activating effect, GAL4-hPPARα LBD luciferase reporter transfection in CV-1 cells; details: for PPAR activity α (relative value to control compound): 100% = GW-590735 10^-6 M; for EC50: Table 25, method of Example 29, read-out: PPAR activity (EC50) α
T1 construct: A receptor expression plasmid (pSG5-GAL4-hPPARα or γ or δ (LBD)); GAL4 (fusion partner); expressed in transfected cells; host or cells: CV-1 cells (ATCC)
T1 sequence (Q07869 239-466 limits assumed): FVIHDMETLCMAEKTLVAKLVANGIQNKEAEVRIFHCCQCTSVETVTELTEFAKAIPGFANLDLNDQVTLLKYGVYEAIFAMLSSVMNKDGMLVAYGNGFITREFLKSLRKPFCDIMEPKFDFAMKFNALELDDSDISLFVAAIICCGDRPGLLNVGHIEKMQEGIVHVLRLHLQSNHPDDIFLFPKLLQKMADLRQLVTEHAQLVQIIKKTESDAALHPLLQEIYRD

hPPARγ (LBD) = molecular target: T2, hPPARγ (LBD) (Homo sapiens, UniProt P37231); assay: PPAR activating effect, GAL4-hPPARγ LBD luciferase reporter transfection in CV-1 cells; details: for EC50: Table 25, method of Example 29, read-out: PPAR activity (EC50) γ
T2 construct: A receptor expression plasmid (pSG5-GAL4-hPPARα or γ or δ (LBD)); GAL4 (fusion partner); expressed in transfected cells; host or cells: CV-1 cells (ATCC)
T2 sequence (P37231 238-503 limits assumed): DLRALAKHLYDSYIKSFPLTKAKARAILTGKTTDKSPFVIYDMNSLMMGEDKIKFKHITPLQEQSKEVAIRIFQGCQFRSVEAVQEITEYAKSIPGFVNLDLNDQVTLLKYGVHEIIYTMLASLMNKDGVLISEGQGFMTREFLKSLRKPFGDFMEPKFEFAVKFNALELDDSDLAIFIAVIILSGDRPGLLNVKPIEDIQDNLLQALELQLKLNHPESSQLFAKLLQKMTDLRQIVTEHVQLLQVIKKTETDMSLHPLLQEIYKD

hPPARδ (LBD) = molecular target: T3, hPPARδ (LBD) (Homo sapiens, UniProt Q03181); assay: PPAR activating effect, GAL4-hPPARδ LBD luciferase reporter transfection in CV-1 cells; parameters: activation: dose or concentration left out as unconfirmed; details: for EC50: Table 25, method of Example 29, read-out: PPAR activity (EC50) δ; for selectivity of PPAR δ-activating effect: compared with GW-501516, from EC50 α, γ, δ of Table 25
T3 construct: A receptor expression plasmid (pSG5-GAL4-hPPARα or γ or δ (LBD)); GAL4 (fusion partner); expressed in transfected cells; host or cells: CV-1 cells (ATCC)
T3 sequence (Q03181 211-439 limits assumed): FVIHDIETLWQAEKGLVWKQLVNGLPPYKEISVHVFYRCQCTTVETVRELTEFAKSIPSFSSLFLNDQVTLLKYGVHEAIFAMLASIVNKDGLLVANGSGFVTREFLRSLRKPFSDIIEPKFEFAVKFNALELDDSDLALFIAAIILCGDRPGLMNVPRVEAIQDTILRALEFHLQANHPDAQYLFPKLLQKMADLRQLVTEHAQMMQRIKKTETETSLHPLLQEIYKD

[1] = Table 26, test compound 10^-7 M
[2] = Table 26, test compound 10^-7 M, 100% = Rosiglitazone 10^-5 M
[3] = Table 24, CV-1 cells, approx. 40 h
[4] = Table 24, 100% = Rosiglitazone 10^-5 M, CV-1 cells, approx. 40 h
[5] = CV-1, 40 h, read-out: PPAR activity δ (relative value to control compound)

Compound	PPAR activity α (relative value to control compound) (hPPARα (LBD); [3])	PPAR activity γ (relative value to control compound) (hPPARγ (LBD); [4])	activation (hPPARδ (LBD); [5])	also measured
2-[3-[2-[3-Isopropyl-6-(trifluoromethyl)benzothiophen-2-yl]ethyl]benzisoxazol-6-yloxy]propionic acid [Example 27]	–	–	–	PPAR activity α (relative value to control compound) (hPPARα (LBD); [1]): Inactive; PPAR activity γ (relative value to control compound) (hPPARγ (LBD); [2]): Inactive
Cc1cc(C(=O)CCc2sc3ccc(C(F)(F)F)cc3c2C)ccc1OCC(=O)O [Example 3, 2-Methyl-4-[3-[3-methyl-5-(trifluoromethyl)-benzothiophen-2-yl]propionyl]phenoxyacetic acid]	Inactive	Inactive	4.4%	–
Cc1cc(C(=O)CCc2sc3ccc(C(F)(F)F)cc3c2C)ccc1OC(C)(C)C(=O)O [Example 4, 2-Methyl-2-[2-methyl-4-[3-[3-methyl-5-(trifluoromethyl)-benzothiophen-2-yl]propionyl]phenoxy]propionic acid]	–	9.0%	19.2%	–
Cc1cc(C(=O)CCc2sc3cc(C(F)(F)F)ccc3c2C)ccc1OC(C)(C)C(=O)O [Example 6]	Inactive	–	–	PPAR activity γ (relative value to control compound) (hPPARγ (LBD)): Inactive; PPAR activity δ (relative value to control compound) (hPPARδ (LBD); Table 24, 100% = GW-501516 10^-7 M, CV-1 cells, approx. 40 h): 40.8%
CCc1c(CCC(=O)c2ccc(CCC(=O)O)c(C)c2)sc2cc(C(F)(F)F)ccc12 [Example 8, 3-[4-[3-[3-Ethyl-6-(trifluoromethyl)benzothiophen-2-yl]propionyl]-2-methylphenyl]propionic acid]	Inactive	Inactive	81%	–
CCCCc1c(CCC(=O)c2ccc(CCC(=O)O)c(C)c2)sc2cc(C(F)(F)F)ccc12 [Example 10, 3-[2-Methyl-4-[3-[3-butyl-6-(trifluoromethyl)benzothiophen-2-yl]propionyl]phenyl]propionic acid]	Inactive	2.2%	66.1%	–
Cc1cc(C(CCc2sc3cc(C(F)(F)F)ccc3c2C(C)C)=NO)ccc1OCC(=O)O [Example 16, 4-[1-Hydroxyimino-3-[3-isopropyl-6-(trifluoromethyl)-benzothiophen-2-yl]propyl]-2-methyl-phenoxyacetic acid]	Inactive	Inactive	51.7%	–
Cc1cc2c(CCc3sc4cc(C(F)(F)F)ccc4c3C(C)C)noc2cc1OCC(=O)O [Example 19, [3-[2-[3-Isopropyl-6-(trifluoromethyl)benzothiophen-2-yl]-ethyl]-5-methyl-benzisoxazol-6-yloxy]acetic acid]	Inactive	Inactive	91.7%	EC50 (hPPARα (LBD); CV-1 cells): > 10 µM; EC50 (hPPARγ (LBD); CV-1 cells): > 10 µM; EC50 (hPPARδ (LBD); CV-1 cells): 0.0048 µM; selectivity of PPAR δ-activating effect (hPPARδ (LBD)): superior to that of the GW-501516
Cc1cc2c(CCc3sc4cc(C(F)(F)F)ccc4c3C(C)C)noc2cc1N(C)CC(=O)O [Example 20, N-[3-[2-[3-Isopropyl-6-(trifluoromethyl)benzothiophen-2-yl]ethyl]-5-methylbenzisoxazol-6-yl]-N-methylglycine]	–	Inactive	88%	–
CCCc1c(CCC(=O)c2cc(C)c(OCC(=O)O)cc2O)sc2cc(C(F)(F)F)ccc12 [Example 22]	–	–	–	PPAR activity α (relative value to control compound) (hPPARα (LBD); [1]): Inactive; PPAR activity γ (relative value to control compound) (hPPARγ (LBD)): Inactive
CCCc1c(CCC(=NO)c2cc(C)c(OCC(=O)O)cc2O)sc2cc(C(F)(F)F)ccc12 [Example 23, 5-Hydroxy-4-[1-hydroxyimino-3-[3-propyl-6-(trifluoromethyl)benzothiophen-2-yl]propyl]-2-methyl-phenoxyacetic acid]	–	–	–	PPAR activity α (relative value to control compound) (hPPARα (LBD); [1]): Inactive; PPAR activity γ (relative value to control compound) (hPPARγ (LBD); [2]): Inactive; activation at 0.1 µM (hPPARδ (LBD); [5]): 5.1%

Continued, in another order:

PPAR activity α (relative value to control compound) (hPPARα (LBD); [3])	PPAR activity γ (relative value to control compound) (hPPARγ (LBD); [4])	activation (hPPARδ (LBD); [5])	Compound	also measured
Inactive	Inactive	23%	Cc1cc(C(=O)CCc2sc3cc(C(F)(F)F)ccc3c2C)ccc1OCC(=O)O [Example 5, 2-Methyl-4-[3-[3-methyl-6-(trifluoromethyl)-benzothiophen-2-yl]propionyl]phenoxyacetic acid]	–
Inactive	Inactive	51.4%	Cc1cc(C(=O)CCc2sc3cc(C(F)(F)F)ccc3c2C)ccc1CCC(=O)O [Example 7, 3-[4-[3-[3-Methyl-6-(trifluoromethyl)-benzothiophen-2-yl]propionyl]-2-methylphenyl]propionic acid]	–
Inactive	1.3%	83.5%	CCCc1c(CCC(=O)c2ccc(CCC(=O)O)c(C)c2)sc2cc(C(F)(F)F)ccc12 [Example 9, 3-[2-Methyl-4-[3-[3-propyl-6-(trifluoromethyl)benzothiophen-2-yl]propionyl]phenyl]propionic acid]	–
Inactive	Inactive	60.9%	Cc1cc(C(=O)CCc2sc3cc(C(F)(F)F)ccc3c2CC(C)C)ccc1CCC(=O)O [Example 11, 3-[2-Methyl-4-[3-[3-isobutyl-6-(trifluoromethyl)benzothiophen-2-yl]propionyl]phenyl]propionic acid]	–
Inactive	Inactive	87.3%	Cc1cc(C(=O)CCc2sc3cc(C(F)(F)F)ccc3c2C(C)C)ccc1CCC(=O)O [Example 12, 3-[2-methyl-4-[3-[3-isopropyl-6-(trifluoromethyl)benzothiophen-2-yl]propionyl]phenyl]propionic acid]	–
Inactive	Inactive	90.4%	Cc1cc(C(CCc2sc3cc(C(F)(F)F)ccc3c2C(C)C)=NO)ccc1CCC(=O)O [Example 13, 3-[4-[1-Hydroxyimino-3-[3-isopropyl-6-(trifluoromethyl)-benzothiophen-2-yl]propyl]-2-methylphenyl]propionic acid]	–
Inactive	Inactive	73%	C=C(CCc1sc2cc(C(F)(F)F)ccc2c1C(C)C)c1ccc(CCC(=O)O)c(C)c1 [Example 14, 3-[4-[1-[2-[3-Isopropyl-6-(trifluoromethyl)-benzothiophen-2-yl]ethyl]vinyl]-2-methylphenyl]propionic acid]	–
Inactive	Inactive	77.4%	Cc1cc(C(=O)CCc2sc3cc(C(F)(F)F)ccc3c2C(C)C)ccc1OCC(=O)O [Example 15, 4-[3-[3-Isopropyl-6-(trifluoromethyl)benzothiophen-2-yl]-propionyl]-2-methylphenoxyacetic acid]	–
Inactive	Inactive	45.9%	CON=C(CCc1sc2cc(C(F)(F)F)ccc2c1C(C)C)c1ccc(OCC(=O)O)c(C)c1 [Example 17, 4-[3-[3-Isopropyl-6-(trifluoromethyl)benzothiophen-2-yl]-1-methoxyiminopropyl]-2-methylphenoxyacetic acid]	–
Inactive	Inactive	94.2%	Cc1cc2c(CCc3sc4cc(C(F)(F)F)ccc4c3C(C)C)noc2cc1CCC(=O)O [Example 21, 3-[3-[2-[3-Isopropyl-6-(trifluoromethyl)benzothiophen-2-yl]-ethyl]-5-methylbenzisoxazol-6-yl]propionic acid]	EC50 (hPPARα (LBD); CV-1 cells): > 10 µM; EC50 (hPPARγ (LBD); CV-1 cells): > 10 µM; EC50 (hPPARδ (LBD); CV-1 cells): 0.0013 µM; selectivity of PPAR δ-activating effect (hPPARδ (LBD)): superior to that of the GW-501516

— patent publication US8648208B2, “Activating agent for peroxisome proliferator activated receptor” (Nippon Chemiphar Co. Ltd., priority 2008, dated 2014)
